In patent publication US8952024B2, “Herbicidal pyrimidone derivatives” (E I du Pont de Nemours and Company, priority 2009, dated 2015):
Where two headings read alike, the source gives them in different places.

Legend:
Assay type in all cases: in vivo
[1] = tested on: barnyardgrass (Echinochloa crus-galli); assay: Test A pre-/postemergence plant response; settings: Echinochloa crus-galli, 240 h; for pest or weed control at 125 g/ha: 125 g ai/ha; for pest or weed control at 500 g/ha: 500 g ai/ha
Outline: (§1)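 Injury was scored visually after roughly ten days against untreated controls, 0 = no effect, 100 = complete control. Test chemicals in a surfactant-containing non-phytotoxic solvent were sprayed either onto soil preemergence or onto one- to two-leaf, 2–10 cm plants postemergence.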

corn (Zea mays) = assay: Test A pre-/postemergence plant response; settings: Zea mays, 240 h; for Corn plant response rating (crop injury, 0 = no effect, 100 = complete kill) at 125 g/ha: 125 g ai/ha
Outline: as §1

[2] = tested on: giant foxtail (Setaria faberii); assay: Test A pre-/postemergence plant response; settings: Setaria faberi, 240 h; for pest or weed control at 125 g/ha: 125 g ai/ha; for pest or weed control at 500 g/ha: 500 g ai/ha
Outline: as §1

[3] = tested on: large crabgrass (Digitaria sanguinalis); assay: Test A pre-/postemergence plant response; settings: Digitaria sanguinalis, 240 h; for pest or weed control at 125 g/ha: 125 g ai/ha; for pest or weed control at 500 g/ha: 500 g ai/ha
Outline: as §1

[4] = tested on: morningglory (Ipomoea spp.); assay: Test A pre-/postemergence plant response; settings: Ipomoea, 240 h; for pest or weed control at 125 g/ha: 125 g ai/ha, read-out: Plant response rating, Morningglory
Outline: as §1

[5] = tested on: pigweed (Amaranthus retroflexus); assay: Test A pre-/postemergence plant response; settings: Amaranthus retroflexus, 240 h; for pest or weed control at 125 g/ha: 125 g ai/ha; for pest or weed control at 500 g/ha: 500 g ai/ha
Outline: as §1

[6] = tested on: velvetleaf (Abutilon theophrasti); assay: Test A pre-/postemergence plant response; settings: Abutilon theophrasti, 240 h; for pest or weed control at 125 g/ha: 125 g ai/ha; for pest or weed control at 500 g/ha: 500 g ai/ha
Outline: as §1

[7] = tested on: wheat (Triticum aestivum); assay: Test A pre-/postemergence plant response; settings: Triticum aestivum, 240 h; for plant injury at 125 g/ha: 125 g ai/ha; for plant injury at 500 g/ha: 500 g ai/ha
Outline: as §1

[8] = tested on: barnyardgrass (Echinochloa crus-galli); assay: Test B flooded paddy test
Outline: (§2)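 Flooded-pot test: water raised to 3 cm above soil when treating, compound put in the water, level unchanged thereafter. Plants were at 2 leaves. Readout after 13 to 15 days, visual, relative to controls; 0 signifies no effect and 100 complete control.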

[9] = tested on: ducksalad (Heteranthera limosa); assay: Test B flooded paddy test
Outline: as §2

rice (Oryza sativa) = assay: Test B flooded paddy test
Outline: as §2

[10] = tested on: umbrella sedge (Cyperus difformis); assay: Test B flooded paddy test
Outline: as §2

[11] = pre-emergence, Preemergence, 0 to 100 scale, 0 = no effect, 100 = complete control, read-out: Plant response rating, Barnyardgrass
[12] = post-emergence, Postemergence, 0 to 100 scale where 0 is no effect and 100 is complete control
[13] = pre-emergence, Preemergence, 0 to 100 scale, 0 = no effect, 100 = complete control
[14] = pre-emergence, Preemergence, 0 to 100 scale, 0 = no effect, 100 = complete control, read-out: Plant response rating, Foxtail, Giant
[15] = pre-emergence, Preemergence, 0 to 100 scale, 0 = no effect, 100 = complete control, read-out: Plant response rating, Crabgrass, Large
[16] = pre-emergence, Preemergence, 0 to 100 scale, 0 = no effect, 100 = complete control, read-out: Plant response rating, Pigweed
[17] = pre-emergence, Preemergence, 0 to 100 scale, 0 = no effect, 100 = complete control, read-out: Plant response rating, Velvetleaf
[18] = pre-emergence, Preemergence, 0 to 100 scale, 0 = no effect, 100 = complete control, read-out: Plant response rating, Wheat
[19] = Flood, 31 g ai/ha, scale 0 to 100 (0 no effect, 100 complete control)

O=C(c1cnoc1C1CC1)c1cnc(-c2ccccc2)n(-c2ccccc2)c1=O [Compound 223, 5-[(5-cyclopropyl-4-isoxazolyl)-carbonyl]-2,3-diphenyl-4(3H)-pyrimidinone]
20%: plant injury at 500 g/ha (corn (Zea mays); post-emergence, Postemergence, 500 g ai/ha, visual injury, 0 to 100 scale (0 no effect, 100 complete control), approx. ten days, read-out: Corn plant response rating)
30%: pest or weed control at 125 g/ha [2, 14] | pest or weed control at 125 g/ha [3, 15]
80%: pest or weed control at 500 g/ha [3, 15] | pest or weed control at 500 g/ha ([4]; post-emergence, Postemergence, 500 g ai/ha, visual injury, 0 to 100 scale (0 no effect, 100 complete control), approx. ten days, read-out: Morningglory plant response rating) | pest or weed control at 500 g/ha ([6]; post-emergence, Postemergence, visual injury, 0 to 100 scale (0 no effect, 100 complete control), approx. ten days, read-out: Velvetleaf plant response rating)
0%: pest or weed control at 125 g/ha ([1]; post-emergence, Postemergence, 0 to 100 scale where 0 is no effect and 100 is complete control, read-out: Plant response rating, Barnyardgrass) | pest or weed control at 125 g/ha [1, 11] | Corn plant response rating (crop injury, 0 = no effect, 100 = complete kill) at 125 g/ha (corn (Zea mays); [12]) | Corn plant response rating (crop injury, 0 = no effect, 100 = complete kill) at 125 g/ha (corn (Zea mays); [13]) | Corn plant response rating (crop injury, 0 = no effect, 100 = complete kill) at 500 g/ha (corn (Zea mays); pre-emergence, Preemergence, 500 g ai/ha, 0 to 100 scale, 0 = no effect, 100 = complete control) | pest or weed control at 125 g/ha ([2]; post-emergence, Postemergence, 0 to 100 scale where 0 is no effect and 100 is complete control, read-out: Plant response rating, Foxtail, Giant) | pest or weed control at 125 g/ha ([3]; post-emergence, Postemergence, 0 to 100 scale where 0 is no effect and 100 is complete control, read-out: Plant response rating, Crabgrass, Large) | pest or weed control at 125 g/ha [6, 17] | plant injury at 125 g/ha ([7]; post-emergence, Postemergence, 0 to 100 scale where 0 is no effect and 100 is complete control, read-out: Plant response rating, Wheat) | plant injury at 500 g/ha ([7]; post-emergence, Postemergence, visual injury, 0 to 100 scale (0 no effect, 100 complete control), approx. ten days, read-out: Wheat plant response rating) | plant injury at 125 g/ha [7, 18] | plant injury at 500 g/ha [7, 18] | pest or weed control at 250 g/ha ([8]; Echinochloa crus-galli, 360 h, 250 g ai/ha, flooded paddy test, visual rating on 0 to 100 scale (0 no effect, 100 complete control) after 13 to 15 days, read-out: Plant response rating, Flood, Barnyardgrass) | pest or weed control at 62 g/ha ([8]; Echinochloa crus-galli, 360 h, Flood (flooded paddy test), 62 g ai/ha, scale of 0 to 100 where 0 is no effect and 100 is complete control, 13 to 15 days, read-out: Plant response rating, Barnyardgrass) | pest or weed control at 125 g/ha ([8]; Echinochloa crus-galli, 360 h, Flood (flooded paddy test), 125 g ai/ha, scale 0 to 100, 0 is no effect, 100 is complete control, 13 to 15 days, read-out: Plant response rating, Barnyardgrass) | pest or weed control at 250 g/ha ([9]; Heteranthera limosa, 360 h, 250 g ai/ha, flooded paddy test, visual rating on 0 to 100 scale (0 no effect, 100 complete control) after 13 to 15 days, read-out: Plant response rating, Flood, Ducksalad) | pest or weed control at 62 g/ha ([9]; Heteranthera limosa, 360 h, Flood (flooded paddy test), 62 g ai/ha, scale of 0 to 100 where 0 is no effect and 100 is complete control, 13 to 15 days, read-out: Plant response rating, Ducksalad) | pest or weed control at 125 g/ha ([9]; Heteranthera limosa, 360 h, Flood (flooded paddy test), 125 g ai/ha, scale 0 to 100, 0 is no effect, 100 is complete control, 13 to 15 days, read-out: Plant response rating, Ducksalad) | plant injury at 250 g/ha (rice (Oryza sativa); Oryza sativa, 250 g ai/ha, flooded paddy test, visual rating on 0 to 100 scale (0 no effect, 100 complete control) after 13 to 15 days, read-out: Plant response rating, Flood, Rice) | plant injury at 62 g/ha (rice (Oryza sativa); Oryza sativa, Flood (flooded paddy test), 62 g ai/ha, scale of 0 to 100 where 0 is no effect and 100 is complete control, 13 to 15 days, read-out: Plant response rating, Rice) | plant injury at 125 g/ha (rice (Oryza sativa); Oryza sativa, Flood (flooded paddy test), 125 g ai/ha, scale 0 to 100, 0 is no effect, 100 is complete control, 13 to 15 days, read-out: Plant response rating, Rice) | pest or weed control at 250 g/ha ([10]; Cyperus difformis, 360 h, 250 g ai/ha, flooded paddy test, visual rating on 0 to 100 scale (0 no effect, 100 complete control) after 13 to 15 days, read-out: Plant response rating, Flood, Sedge, Umbrella) | pest or weed control at 62 g/ha ([10]; Cyperus difformis, 360 h, Flood (flooded paddy test), 62 g ai/ha, scale of 0 to 100 where 0 is no effect and 100 is complete control, 13 to 15 days, read-out: Plant response rating, Sedge, Umbrella) | pest or weed control at 125 g/ha ([10]; Cyperus difformis, 360 h, Flood (flooded paddy test), 125 g ai/ha, scale 0 to 100, 0 is no effect, 100 is complete control, 13 to 15 days, read-out: Plant response rating, Sedge, Umbrella)
10%: pest or weed control at 125 g/ha [4, 13]
60%: pest or weed control at 500 g/ha ([3]; post-emergence, Postemergence, visual injury, 0 to 100 scale (0 no effect, 100 complete control), approx. ten days, read-out: Crabgrass, Large plant response rating) | pest or weed control at 125 g/ha [4, 12] | pest or weed control at 125 g/ha [5, 16] | pest or weed control at 500 g/ha [6, 17]
0: Barnyardgrass plant response rating [8, 19] | Ducksalad plant response rating [9, 19] | Rice plant response rating (rice (Oryza sativa); [19]) | Sedge, Umbrella plant response rating [10, 19]
90%: pest or weed control at 500 g/ha [2, 14] | pest or weed control at 500 g/ha [5, 16]
70%: pest or weed control at 500 g/ha [1, 11] | pest or weed control at 500 g/ha ([2]; post-emergence, Postemergence, visual injury, 0 to 100 scale (0 no effect, 100 complete control), approx. ten days, read-out: Foxtail, Giant plant response rating) | pest or weed control at 500 g/ha ([5]; post-emergence, Postemergence, visual injury, 0 to 100 scale (0 no effect, 100 complete control), approx. ten days, read-out: Pigweed plant response rating)
50%: pest or weed control at 500 g/ha ([1]; post-emergence, Postemergence, visual injury, 0 to 100 scale (0 no effect, 100 complete control), approx. ten days, read-out: Barnyardgrass plant response rating) | pest or weed control at 125 g/ha ([5]; post-emergence, Postemergence, 0 to 100 scale where 0 is no effect and 100 is complete control, read-out: Plant response rating, Pigweed) | pest or weed control at 125 g/ha ([6]; post-emergence, Postemergence, 0 to 100 scale where 0 is no effect and 100 is complete control, read-out: Plant response rating, Velvetleaf)
